Bounds are passed on as bounds.

Test [1] has as its system mobilized peripheral blood CD34+ cells. Nature of the test: CD34+ expansion assay. It counts as cell-based. The conditions noted are these: Homo sapiens; read-out: CD34 Frequency EC50. The procedure:
Approximately 3,000 mobilized peripheral blood CD34+ cells were plated per well in 384-well plate at a final volume of 45 μL in HSC growth media (SFEM supplemented with Pen/Strep, 50 ng/mL FLT3L, TPO, SCF and IL-6). Serial dilutions were made in HSC growth media with a top final concentration of 10 μM. 5 μL 10× stock was added to each well. The plate was gently tapped on all sides and incubated for 7 days at 37° C./5% CO2. On day 7, the media was aspirated on a Biotek plate washer and 30 μL staining solution was added to the cells with antibodies against CD34-PE, CD90-APC, CD45RA-PE-CF594 in PBS. Cells were washed once in PBS and resuspended in 80 μL for final volume. 40 μL was acquired by flow cytometry (BD Celesta).

For test [2], the target named is T1, aryl hydrocarbon receptor (AHR) (Homo sapiens, UniProt P35869).
T1 sequence (P35869 11-848): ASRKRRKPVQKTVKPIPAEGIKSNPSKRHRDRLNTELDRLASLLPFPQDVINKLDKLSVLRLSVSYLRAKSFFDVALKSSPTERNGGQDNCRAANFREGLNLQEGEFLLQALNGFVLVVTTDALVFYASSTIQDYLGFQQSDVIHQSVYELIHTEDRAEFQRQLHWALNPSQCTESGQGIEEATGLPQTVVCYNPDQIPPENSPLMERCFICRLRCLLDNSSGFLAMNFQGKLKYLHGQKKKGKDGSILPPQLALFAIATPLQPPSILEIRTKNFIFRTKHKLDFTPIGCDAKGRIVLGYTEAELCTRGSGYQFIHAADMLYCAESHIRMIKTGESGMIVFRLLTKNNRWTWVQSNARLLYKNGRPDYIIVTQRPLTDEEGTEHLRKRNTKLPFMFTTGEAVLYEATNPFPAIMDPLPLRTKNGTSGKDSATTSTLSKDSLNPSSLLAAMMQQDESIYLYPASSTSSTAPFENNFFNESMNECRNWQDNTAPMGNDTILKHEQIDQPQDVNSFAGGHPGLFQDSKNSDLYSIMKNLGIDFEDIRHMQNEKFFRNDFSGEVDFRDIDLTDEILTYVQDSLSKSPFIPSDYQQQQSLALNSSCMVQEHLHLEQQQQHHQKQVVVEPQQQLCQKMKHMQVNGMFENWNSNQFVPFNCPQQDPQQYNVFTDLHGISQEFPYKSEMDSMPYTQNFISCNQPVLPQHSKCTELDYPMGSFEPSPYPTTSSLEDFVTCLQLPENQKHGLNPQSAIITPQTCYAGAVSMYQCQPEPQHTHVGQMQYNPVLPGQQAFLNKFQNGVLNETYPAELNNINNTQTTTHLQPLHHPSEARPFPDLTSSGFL
Briefly: DRE-Luciferase reporter high-throughput screen (AHR antagonist, VAF347-activated). Background: Reporter assays use an easily measured gene product as a stand-in for the process of interest.

Usually EC50 stands for the concentration needed to bring the measured effect to its halfway point. One may read the IC50 as the concentration that inhibits the measured activity by half. High values mean weaker potency, low ones greater potency. As to `O=[N+]([O-])c1ccc(/C=N/Nc2nccc(-c3cccnc3)n2)cc1` [compound 113], in test [1], the concentration for a half-maximal effect (EC50) fell in the range of 1 to 5 µM. In addition, the IC50 in test [2] lay within 0.2 to 0.5 µM.
On the same counts, the results for `FC(F)(F)c1ccnc(N/N=C/c2ccc(Cl)cc2Cl)n1` [compound 114] are 1 to 5 µM and 0.5 to 1 µM.
On the same counts, the results for `Cc1nc(-c2ccccc2)sc1C(=O)N/N=C/c1cc2ccccc2o1` [compound 115] are 1 to 5 µM and 0.2 to 0.5 µM.
Turning to `Cc1ccc2nc(-c3ccc(Cl)cc3)cc(C(N)=O)c2c1` [compound 116], the 50% effective concentration (EC50) in test [1] is < 0.5 µM. In test [2], the IC50 was < 0.2 µM.
Take `COc1ccc(-c2n[nH]c3c2C(=O)CC(c2ccccc2)C3)cc1` (centres unmarked) [compound 117]: in test [1], the half-maximal effective concentration (EC50) was < 0.5 µM. For the same compound, the concentration for half-maximal inhibition (IC50) in test [2] is < 0.2 µM.
As for `Cc1noc(C)c1COc1cccc(C(=O)/N=c2/sccn2C)c1` [compound 118], the EC50 in test [1] is < 0.5 µM. Besides, in test [2], the IC50 is < 0.2 µM.
For `CCCc1cc(C(N)=O)c(NC(=O)COc2ccccc2C)s1` [compound 119], in that order: < 0.5 µM and 0.2 to 0.5 µM.
With `CSc1ccc(N2C(=O)C3Cc4ccccc4CN3C2=O)cc1` (centres unmarked) [compound 120], in test [1], the half-maximal effective concentration (EC50) lay in the range of 0.5 to 1 µM. In addition, in test [2], the IC50 was 0.2 to 0.5 µM.
With `COc1cc([N+](=O)[O-])ccc1NC(=O)Nc1nc2c(s1)CCCC2` [compound 121], the concentration giving a half-maximal response (EC50) in test [1] was 1 to 5 µM. In test [2], this compound showed a concentration for half-maximal inhibition (IC50) of 0.5 to 1 µM.
For `Cc1ccc(-c2nc(-c3cc(C)on3)no2)cc1` [compound 122], in that order: 1 to 5 µM and 0.5 to 1 µM.
For `FC(F)(F)Oc1ccc(-c2nnc(-c3cccnc3)o2)cc1` [compound 123], in that order: 1 to 5 µM and 0.5 to 1 µM.
With `Cc1ccc(Cc2c(C)nc(Nc3nc(C)c4ccc(C)cc4n3)[nH]c2=O)cc1` [compound 124], in test [1], the half-maximal effective concentration (EC50) fell in the range of 1 to 5 µM. This compound also gave a half-inhibitory concentration (IC50) in test [2] of 0.2 to 0.5 µM.
Regarding `CC(=O)c1c(C)nc2nc(SCc3cccc(Cl)c3)nn2c1C` [compound 125], in test [1], the EC50 was in the range of 1 to 5 µM. For the same compound, in test [2], the 50% inhibitory concentration (IC50) fell in the range of 0.5 to 1 µM.
Regarding `Cc1cccc(-c2nc(-c3c[nH]c(C(=O)N4CCCC4)c3)cs2)c1` [compound 126], in test [1], the EC50 lay within 1 to 5 µM. The compound further returned an IC50 in test [2] of 0.5 to 1 µM.
Regarding `COc1ccc(NC(=O)CNc2ccc(C(F)(F)F)cc2)cc1Cl` [compound 127], in test [1], the concentration for a half-maximal effect (EC50) was in the range of 1 to 5 µM. For the same compound, in test [2], the IC50 was in the range of 0.5 to 1 µM.
On the same counts, the results for `CC(C)OCCCn1c(=O)c(-c2cccs2)nc2cc(S(=O)(=O)N3CCOCC3)ccc21` [compound 128] are 1 to 5 µM and 0.5 to 1 µM.
For `O=c1[nH]c(NC2CCCC2)nc2nccc(-c3cccs3)c12` [compound 129], in that order: 1 to 5 µM and 0.2 to 0.5 µM.
For the compound `COc1ccc(-c2nnc(Nc3ccccc3O)c3ccccc23)cc1` [compound 130], in test [1], the EC50 fell in the range of 1 to 5 µM. In test [2], this compound yielded a 50% inhibitory concentration (IC50) of 0.5 to 1 µM.
On the same counts, the results for `Cc1ccccc1CS(=O)(=O)N1CCc2ccccc2C1` [compound 131] are 1 to 5 µM and 0.5 to 1 µM.
Take `O=C1CN(C(=O)c2sc3ccccc3c2Cl)c2ccccc2N1` [compound 132]: in test [1], the EC50 lay within 1 to 5 µM. In test [2], the IC50 was 0.5 to 1 µM.
Consider `CCN(CC)C(=O)c1nc2c(s1)CCN(c1ncccn1)CC2` [compound 133], for which, in test [1], the EC50 lay in the range of 1 to 5 µM. This compound also displayed a half-inhibitory concentration (IC50) in test [2] of 0.5 to 1 µM.
In the case of `Cc1ccc(Cl)cc1-n1ccc2nc(N3CCCCC3)ncc2c1=O` [compound 134], the EC50 in test [1] is 1 to 5 µM. In test [2], this compound had a half-maximal inhibitory concentration (IC50) of 0.5 to 1 µM.
`CCC(=O)Nc1ccc(N2Cc3ccccc3C2=O)cc1` [compound 135]: the concentration for a half-maximal effect (EC50) in test [1] was in the range of 1 to 5 µM. In test [2], this compound came in with a half-maximal inhibitory concentration (IC50) of 0.5 to 1 µM.
On the same counts, the results for `COc1ccc(-c2ccc3c(N)c(C(=O)NC4CC4)sc3n2)cc1` [compound 136] are ≥ 5 µM and 0.5 to 1 µM.
For `Cc1c(Cl)c(=O)oc2cc(OCc3ccc(Cl)cc3)ccc12` [compound 137], in that order: ≥ 5 µM and 0.5 to 1 µM.
As to `Cc1ccc2nc(-c3ccc(NC(=O)COC(=O)c4ccc(O)cc4O)cc3)sc2c1` [compound 138], in test [1], the concentration for a half-maximal effect (EC50) was ≥ 5 µM. Further, the IC50 in test [2] is 0.5 to 1 µM.
Turning to `Cc1cc(C(=O)NNC(=O)c2cnn(-c3ccccc3C)c2C(F)(F)F)c(C)o1` [compound 139], the EC50 in test [1] was ≥ 5 µM. Besides, in test [2], the 50% inhibitory concentration (IC50) lay in the range of 0.5 to 1 µM.
On to `Clc1ccc(-c2nc(-c3cnccn3)no2)cc1` [compound 140], for which, in test [1], the EC50 is ≥ 5 µM. In test [2], this compound gave a concentration for half-maximal inhibition (IC50) of 0.5 to 1 µM.

Source of the values: patent publication US20210220408A1, “ARYL HYDROCARBON RECEPTOR ANTAGONISTS AND METHODS OF USE” (Magenta Therapeutics Inc., priority 2018, published 2021).
